In patent US8586033B2, “Integrin αIIbβ3 specific antibodies and peptides” (The Scripps Research Institute, priority 2003, dated 2013):
“Also recorded” adds a separate entry of the source. Where a SMILES comes first, the peptide text is derived from it. Bridges are numbered along the chain shown (N, C = ends). [ ]: non-standard residue; d: D form. hArg = N=C(N)NCCCC[C@H](N)C(=O)O; Mpa = O=C(O)CCS

How the values were obtained:
[1] = target: T1, interaction of human fibrinogen and human integrin αIIbβ3 (Homo sapiens, UniProt P05106+P08514); experiment: Fibrinogen binding inhibition assay (competitive ELISA)
T1 construct: purchased Enzyme Research Laboratories (South Bend, Ind.)
Description: Wells of a Costar 3690 96-well plate were coated with 100 ng of integrin αIIbβ3 in 50 μl metal buffer at 4° C. overnight. The plate was washed twice with water and blocked with 160 μl of 3% (w/v) skim milk in TBS for 1 h at 37° C. […] The final concentrations were adjusted between 1.3×10^−8 M and 8.0×10^−7 M of Fabs and between 8.9×10^−8 M and 9.1×10^−5 M of synthetic peptides. After incubation for 2 h at 37° C. followed by ten times washing with water and five times washing with 0.05% Tween20 in TBS, 50 μl of 0.5 μg/ml streptavidine-HRP (Pierce) diluted in 3% (w/v) skim milk in TBS was added and incubated for 1 h at 37° C. After washing as above, 50 μl of ABTS substrate solution (Barbas, C. F., 3rd, Burton, D. R., Scott, J. K., and Silverman, G. J. (2001) Phage Display: A Laboratory Manual, Cold Spring Harbor Laboratory Press, Cold Spring Harbor, N.Y.) was added. This experiment was repeated three times at each concentration to get the mean value and standard deviation.

[2] = system: human platelets; experiment: Platelet aggregation assay ex vivo (ADP-induced, lumi-aggregometer); format: cell-based; details: ADP 20 μM; for inhibition of platelet aggregation at 90 μM: peptide 90 μM
Description: Peripheral human blood was collected as described above. Platelet-rich plasma (PRP) was obtained from the collected peripheral blood by centrifugation at 135 g for 15 min. Subsequent centrifugation at 1,500 g for 15 min yielded platelet-poor plasma (PPP). By mixing PRP and PPP, conditioned plasma of 300,000-350,000 platelets per 1 μl of plasma was prepared. […] The platelet aggregation assay was done as described previously (Klinkhardt, U., Kirchmaier, C. M., Westrup, D., Breddin, H. K., Mahnel, R., Graff, J., Hild, M., and Harder, S. (2000) Differential in vitro effects of the platelet glycoprotein IIb/IIIa inhibitors abxicimab or SR121566A on platelet aggregation, fibrinogen binding and platelet secretory parameters. Thromb Res 97, 201-207) using a whole blood lumi-aggregometer (Chrono-log, Havertown, Pa.). The impedance of each sample was monitored until a stable baseline was established (<5 mV drift per minute). To induce platelet aggregation, 9 μl of an ADP solution was added to reach a final concentration of 20 μM. Increase in impedance across a pair of electrodes over time was transmitted through an interface to a personal computer for analysis (AGGRO/LINK, Chrono-log).

[3] = target: integrin αIIbβ3 (Homo sapiens, UniProt P05106+P08514); experiment: Inhibition of binding of selected RAD antibodies to integrin by peptides
[4] = system: human platelets; experiment: Flow cytometry, Fab binding to cells; format: cell-based; details: Fab 0.2 μM, peripheral blood
Description: (§1) Peripheral blood was drawn from a healthy volunteer and collected in an ACD tube (Becton Dickinson, San Jose, Calif.). HUVEC were treated for 5 min with 0.05% (w/v) trypsin, 0.53 mM EDTA (Life Technologies), collected by centrifugation at 500 g for […], and resuspended in 1% (w/v) BSA in PBS (phosphate buffered saline). […] After incubation for 40 min at room temperature followed by washing twice with 1% (w/v) BSA in PBS, 10 μl of FITC conjugated anti-human IgG polyclonal antibodies (Sigma-Aldrich) diluted in 750 μl of 1% (w/v) BSA in PBS was added and incubated for 20 min at room temperature. After washing twice with 1% (w/v) BSA in PBS, flow cytometry was performed using a FACStar instrument from Becton Dickinson (San Jose, Calif.).

[5] = system: HUVEC cells; experiment: Flow cytometry, Fab binding to cells; format: cell-based, human; details: Fab 0.2 μM; HUVEC mainly express integrin αvβ3
Description: as §1

[6] = system: platelets; details: aggregation induced at 5 μM ADP; read-out: previously reported EC50 of platelet aggregation inhibition; cited from earlier work
[7] = system: integrins αIIbβ3, αvβ3 and αMβ2; details: cited from earlier work
[8] = human, in vivo; cited from earlier work

Row | Molecule | inhibition of the interaction between integrin αIIbβ3 and fibrinogen (in words) [1] | inhibition of platelet aggregation ex vivo (in words) [2] | inhibition of platelet aggregation at 90 μM [2] | inhibition of the binding of the selected RAD antibodies to integrin αIIbβ3 [3] | reported integrin specificity / cross-reactivity [7] | also measured
1 | THSRADRRE (listed as Homo sapiens) [linear nonapeptide derived from HCDR3 of clone RAD1] | did not inhibit and not | not |  |  |  | 
2 | CC(C)[C@H](N)C(=O)N[C@@H](Cc1c[nH]c2ccccc12)C(=O)N[C@H]1CSSC[C@@H](C(=O)O)NC(=O)[C@H](CCCNC(=N)N)NC(=O)[C@H](CCCNC(=N)N)NC(=O)[C@H](CC(=O)O)NC(=O)[C@H](C)NC(=O)[C@H](CCCNC(=N)N)NC1=O (H-VWCRADRRC-OH; disulfide 3-9; N-terminus and C-terminus assumed) | inhibited; also recorded: strongly inhibited | inhibited; also recorded: strongly inhibited | completely inhibited | inhibited |  | inhibition of platelet aggregation at 9 μM ([2]; peptide 9 μM): the only peptide to inhibit platelet aggregation
3 | THSDARRRE (inversed RAD motif peptide) [control peptide with an inversed RAD motif, reference compound] | did not inhibit |  |  |  |  | 
4 | Abciximab: chimeric Fab with mouse variable and human constant domains, integrin αIIbβ3 inhibitor |  |  |  |  | cross-react with integrin αvβ3 and αMβ2 | binding to human platelets (flow cytometry) [4]: bound to both platelets and HUVEC cells; binding to HUVEC cells (flow cytometry) [5]: bound to both platelets and HUVEC cells; EC50 ([2]; conditioned plasma, read-out: EC50, required concentration for 50% inhibition in a human platelet aggregation assay): 45 nM; EC50 [6]: 34 nM; occurrence of thrombocytopenia after the second administration [8]: 4%
5 | N=C(N)NCCCC[C@@H]1NC(=O)CCSSC[C@@H](C(N)=O)NC(=O)[C@@H]2CCCN2C(=O)[C@H](Cc2c[nH]c3ccccc23)NC(=O)[C@H](CC(=O)O)NC(=O)CNC1=O [eptifibatide] ([Mpa][hArg]GDWPC-NH2; disulfide 1-7) |  |  |  |  | αIIbβ3-specific | incidence of thrombocytopenia versus placebo [8]: approximately the same
6 | CCCCS(=O)(=O)N[C@@H](Cc1ccc(OCCCCC2CCNCC2)cc1)C(=O)O [tirofiban] |  |  |  |  | αIIbβ3-specific | 
7 | CC(C)[C@H](N)C(=O)N[C@H](C(=O)N[C@H]1CSSC[C@@H](C(=O)O)NC(=O)[C@H](CCCNC(=N)N)NC(=O)[C@H](CCCNC(=N)N)NC(=O)[C@H](CC(=O)O)NC(=O)[C@H](C)NC(=O)[C@H](CCCNC(=N)N)NC1=O)C(C)C (H-VVCRADRRC-OH; disulfide 3-9; N-terminus and C-terminus assumed) | inhibited; also recorded: strongly inhibited | inhibited; also recorded: strongly inhibited | completely inhibited | inhibited |  | 
8 | CC(C)[C@H](N)C(=O)N[C@@H](Cc1c[nH]c2ccccc12)C(=O)N[C@H]1CSSC[C@@H](C(=O)O)NC(=O)[C@H](CCCNC(=N)N)NC(=O)[C@H](CCCCN)NC(=O)[C@H](CC(=O)O)NC(=O)[C@H](C)NC(=O)[C@H](CCCNC(=N)N)NC1=O (H-VWCRADKRC-OH; disulfide 3-9; N-terminus and C-terminus assumed) | inhibited; also recorded: strongly inhibited | inhibited; also recorded: strongly inhibited | completely inhibited | inhibited |  | 
9 | VVCDARRRC (inversed RAD motif peptide) [control peptide with an inversed RAD motif, reference compound] | did not inhibit |  |  |  |  | 
